Test results as given in US6541488B1, “Compositions for treating arterial thrombosis and a factor Xa inhibitor” (Sanofi-Synthelabo, priority 1997, dated 2003).
Like-named read-outs stand apart in the source and are kept apart here.

How the values were obtained:
arterial thrombosis = assay: Arterial thrombosis induced by electrical stimulation of the left common carotid in rabbits, blood flow rate measured; type: in vivo; conditions: rabbit; for effect on reduction in carotid blood flow rate: 45 min observation
Protocol: New Zealand male rabbits weighing 2.7 to 3 kg, obtained from the Lago breeding unit (France) were used. They were housed under standard conditions.
The formation of the thrombus was induced by external electrical stimulation of the left common carotid according to the Hladovec I. et al. method (Experimental arterial thrombosis in rats with continuous registration, Throm. Diathes. Haemor. 1971; 26: 407-410). The rabbits were anaesthetized with pentobarbital at the dose of 30 mg/kg iv. A segment of the left carotid artery was exposed and insulated by a piece of insulating film. Electrodes were inserted under the artery. A partial stricture inducing a 20% reduction in flow rate was made in the artery. The latter was then stimulated with the aid of a 2.5 mA current delivered by a constant current stimulator for 3 minutes. The thrombotic occlusion was evaluated by continuous measurement of the flow rate of blood in the carotid by means of an NARCO electromagnetic flow meter. This measurement was made over an observation period of 45 minutes.
For the treatment, solutions of SR 90107/ORG 31540 and of SR 121787A were prepared immediately before use in a saline solution. The solutions of SR 90107/ORG 31540 were injected by the IV route 5 minutes before induction of thrombosis in a volume of 1 ml/kg. SR 121787A was dadministered by the oral route 2 hours earlier.
The results were calculated and expressed as % reduction in blood flow rate at various times relative to time 0. They are grouped together in FIG. 1.

platelet aggregation = assay: Platelet aggregation induced by ADP or collagen; type: cell-based
induced thromboses [1] = conditions: rats; i.v. and s.c. administration; cited from earlier work
[2] = rats, cited from earlier work
thrombin = thrombin (Homo sapiens, UniProt P00734); assay: Activity on thrombin; type: biochemical
human plasma = assay: Activated partial thromboplastin time (APTT) test on human plasma
induced thromboses [3] = conditions: rabbits; i.v. and s.c. administration; cited from earlier work
activated factor X (Xa) = assay: Neutralization of activated factor X (Xa) by antithrombin III; type: biochemical
induced thromboses [4] = conditions: rats; i.v. and s.c. administration; cited from earlier work; remark: listed apart in the source
[5] = Toxicity studies with repeated assays; conditions: any animal species; repeated assays over 4 weeks with up to 10 mg/kg subcutaneously

Q: Which “effect on course of the carotid output” value (arterial thrombosis; oral dose 10 mg/kg 2 hours before, sole active ingredient) does the source give for `CCOC(=O)CCN(c1nc(-c2ccc(/C(N)=N/C(=O)OCC)cc2)cs1)C1CCN(CC(=O)OCC)CC1` [SR 121787A, ethyl N-(1-ethoxycarbonylmethylpiperidin-4-yl)-N-{4-[4-{(N-ethoxycarbonylimino)(amino)methyl}phenyl]thiazol-2-yl}-3-aminopropionate] here?
A: did not significantly modify

Q: And the “effect on drop of the carotid output” value (arterial thrombosis; oral dose 20 mg/kg 2 hours before, sole active ingredient)?
A: almost completely inhibited

Q: With “methyl O-(2-deoxy-2-sulphoamino-6-O-sulfo-α-D-glucopyranosyl)-(1→)-O-(β-D-glucopyranosyluronic acid)-(1→4)-O-(2-deoxy-2-sulphoamino-3,6-di-O-sulpho-α-D-glucopyranosyl-(1→4)-O-(2-O-sulpho-Ε-L-idopyranosyl-uronic acid)-(1→4)-2-deoxy-2-sulphoamino-6-O-sulpho-α-D-glucopyranoside [SR 90107/ORG 31540]” as the compound, how does the “potentiation of platelet aggregation induced by ADP” value (platelet aggregation; ADP) read?
A: does not potentiate

Q: And the “potentiation of platelet aggregation induced by collagen” value (platelet aggregation; collagen)?
A: does not potentiate

Q: What about the “effect on reduction in carotid blood flow rate” value (arterial thrombosis; 300 nmol/kg IV 5 minutes before induction of thrombosis) of the same compound?
A: no influence

Q: And the “effect on reduction in carotid blood flow rate” value (arterial thrombosis; 600 nmol/kg IV 5 minutes before induction of thrombosis)?
A: reduced it slightly but not significantly

Q: What about the antithrombotic effects (induced thromboses [1]) of the same compound?
A: demonstrated

Q: And the loss of blood ([2]; 21.7 mg/kg (high dose))?
A: identical to that observed with 200 units anti-Xa/kg of heparin

Q: What about the “increase of blood loss compared with standard heparin or LMWHs” value [2] of the same compound?
A: only slightly increases blood loss

Q: And the activity on thrombin (thrombin)?
A: completely devoid

Q: What about the “mutagenicity in the AMES test” value (AMES test) of the same compound?
A: not mutagenic

Q: What about the “modification of activated partial thromboplastin time (APTT)” value (human plasma) of the same compound?
A: hardly modifies

Q: And the “mutagenicity in the DNA repair test” value (DNA repair test)?
A: not mutagenic

Q: And the antithrombotic effects (induced thromboses [3])?
A: demonstrated

Q: What about the “catalysis of neutralization of factor Xa by antithrombin III” value (activated factor X (Xa)) of the same compound?
A: can be catalysed

Q: What about the antithrombotic effects (induced thromboses [4]) of the same compound?
A: demonstrated

Q: And the toxicological effect [5]?
A: No toxicological effect
